Source: patent US20040254162A1, “Oxazolidinone derivatives as antimicrobials” (priority 2001, published 2004)
In brackets after ≈: the same amount, converted by molar mass. Like-named read-outs stand apart in the source and are kept apart here.

Experiments:
MRSA 33 = test: MIC, agar incorporation method; conditions: Staphylococcus aureus, MRSA, read-out: MIC MRSA 33
MRSE 879 = test: Broth MIC, MRSE 879; format: cell-based; conditions: Staphylococcus epidermidis; MRSE 879; read-out: broth MIC
S. pneum AB 34 = test: MIC, agar incorporation method; conditions: Streptococcus pneumoniae, AB34, read-out: MIC S. pneum AB 34
[1] = tested on: Peptostreptococcus asaccharolyticus; test: Agar dilution MIC, anaerobes; format: cell-based; conditions: single isolates, anaerobic agar dilution
Porphyromonas gingivalis = test: Agar dilution MIC, anaerobes; format: cell-based; conditions: Porphyromonas gingivalis; single isolate, anaerobic agar dilution; read-out: MIC Porphyromonas gingivalis
[2] = tested on: clinically relevant gram positive pathogens; conditions: nearly all clinically relevant gram positive pathogens; cited from earlier work
[3] = tested on: Peptostreptococcus micros; test: Agar dilution MIC, anaerobes; format: cell-based; conditions: single isolates, anaerobic agar dilution
VRE 6A (Ent. faecium 6A) = test: MIC, agar incorporation method; conditions: Enterococcus, VRE, read-out: MIC VRE 6A
Bacteroides fragilis = test: Agar dilution MIC, anaerobes; format: cell-based; conditions: Bacteroides fragilis, single isolates, anaerobic agar dilution; read-out: MIC Bacteroides fragilis
[4] = tested on: Mycobacterium avium intracellulare; test: Agar dilution method, mycobacteria; format: cell-based
[5] = Changes in MIC under different conditions: agar MIC; format: cell-based; conditions: strain not given
MRSA 15187 = test: MIC, agar incorporation method; conditions: Staphylococcus aureus, MRSA, read-out: MIC MRSA 15187
S. pneumoniae = test: Summary of in vitro activity (MIC); conditions: Streptococcus pneumoniae
MRSA 562 [6] = test: MIC, agar incorporation method; conditions: Staphylococcus aureus, MRSA
G +ve bacteria = test: Summary of in vitro activity (MIC)
[7] = tested on: Mycobacterium tuberculosis
[8] = tested on: Peptostreptococcus tetradius; test: Agar dilution MIC, anaerobes; format: cell-based; conditions: Anaerococcus tetradius, single isolates, anaerobic agar dilution; read-out: MIC Peptostreptococcus tetradius
Eubacterium leutum = test: Agar dilution MIC, anaerobes; format: cell-based; conditions: Eubacterium, single isolates, anaerobic agar dilution; read-out: MIC Eubacterium leutum
[9] = tested on: Prevotella melaninogenica; test: Agar dilution MIC, anaerobes; format: cell-based; conditions: single isolates, anaerobic agar dilution
Prevotella bivia = test: Agar dilution MIC, anaerobes; format: cell-based; conditions: Prevotella bivia; single isolate, anaerobic agar dilution; read-out: MIC Prevotella bivia
MRSA 562 [10] = test: In vivo activity against MRSA 562 (ED50); parameters: species or system Methicillin Resistant Staphylococcus aureus; conditions: PO; MRSA 562 infection
Ent. faecalis ATCC 29212 = test: MIC, agar incorporation method; conditions: Enterococcus faecalis, ATCC29212, read-out: MIC E. faecalis 29212
[11] = tested on: Prevotella (Bacteroides) disiens; test: Agar dilution MIC, anaerobes; format: cell-based; conditions: single isolates, anaerobic agar dilution; read-out: MIC Prevotella (Bacteroides) disiens
[12] = tested on: Peptostreptococcus magnum; test: Agar dilution MIC, anaerobes; format: cell-based; conditions: single isolates, anaerobic agar dilution
[13] = tested on: Peptostreptococcus prevotii; test: Agar dilution MIC, anaerobes; format: cell-based; conditions: Anaerococcus prevotii, single isolates, anaerobic agar dilution; read-out: MIC Peptostreptococcus prevotii
Strep. pne. ATCC 6303 = test: MIC, agar incorporation method; conditions: Streptococcus pneumoniae, ATCC6303, read-out: MIC S. pneum 6303
Clostridium difficile = test: Agar dilution MIC, anaerobes; format: cell-based; conditions: Clostridioides difficile, single isolates, anaerobic agar dilution; read-out: MIC Clostridium difficile
Fusobacterium varium = test: Agar dilution MIC, anaerobes; format: cell-based; conditions: Fusobacterium varium, single isolates, anaerobic agar dilution; read-out: MIC Fusobacterium varium
[14] = tested on: Porphyromonas asaccharolytica; test: Agar dilution MIC, anaerobes; format: cell-based; conditions: Porphyromonas asaccharolytica; single isolate, anaerobic agar dilution; read-out: MIC Porphyromonas asaccharolytica
[15] = Changes in MIC under different conditions: broth MIC; format: cell-based; conditions: strain not given
Fusobacterium necrogenes = test: Agar dilution MIC, anaerobes; format: cell-based; conditions: Fusobacterium necrogenes; single isolate, anaerobic agar dilution; read-out: MIC Fusobacterium necrogenes
Clostridium perfringens = test: microbe, parasite or virus in culture; format: cell-based; conditions: Clostridium perfringens, read-out: MIC Clostridium perfringens, single isolates, anaerobic agar dilution
[16] = in vivo; cited from earlier work
Fusobacterium nucleatum = test: Agar dilution MIC, anaerobes; format: cell-based; conditions: single isolates, anaerobic agar dilution

For `CC(=O)NC[C@H]1CN(c2ccc(N3CCOCC3)c(F)c2)C(=O)O1` [Linezolid], the MIC (MRSA 33) was 2 µg/mL (≈ 5.93 µM), the MIC (MRSE 879) was 2 µg/mL (≈ 5.93 µM) and the MIC (S. pneum AB 34) was 4 µg/mL (≈ 11.9 µM). For the same compound, the MIC ([1]; Peptoniphilus asaccharolyticus) was 0.5 µg/mL (≈ 1.48 µM), the “MIC Peptostreptococcus asaccharolyticus” value [1] was 1 µg/mL (≈ 2.96 µM) and the MIC (Porphyromonas gingivalis) was 1 µg/mL (≈ 2.96 µM). The MIC90 [2] was 2 to 4 µg/mL, the MIC ([3]; Parvimonas micra, read-out: MIC Peptostreptococcus micros) was 0.5 µg/mL (≈ 1.48 µM) and the “MIC Peptostreptococcus micros” value [3] was 1 µg/mL (≈ 2.96 µM). For the same compound, the MIC (VRE 6A (Ent. faecium 6A)) was 2 µg/mL (≈ 5.93 µM), the MIC (Bacteroides fragilis) was 4 µg/mL (≈ 11.9 µM) and the G.M. [4] was 20.587 µg/mL. The MIC50 ([4]; Mycobacterium avium, 504 h, Middlebrook 7H10 agar, 21 days, read-out: MIC50) was 16 µg/mL (≈ 47.4 µM), the MIC90 ([4]; Mycobacterium avium, 504 h, Middlebrook 7H10 agar, 21 days, read-out: MIC90) was 64 µg/mL (≈ 190 µM) and the “Agar MIC” value [5] was 2 µg/mL. For the same compound, the MIC (MRSA 15187) was 1 µg/mL (≈ 2.96 µM), the MIC50 (S. pneumoniae) was 0.5 µg/mL (≈ 1.48 µM) and the MIC90 (S. pneumoniae) was 2 µg/mL (≈ 5.93 µM). It also gave an MIC (S. pneumoniae; read-out: Geometric Mean of in vitro activity (MIC)) of 0.6 µg/mL (≈ 1.78 µM), an MIC (MRSA 562 [6]) of 2 µg/mL (≈ 5.93 µM) and an MIC (MRSA 562 [6]; read-out: MIC MRSA 562) of 2 µg/mL (≈ 5.93 µM). For the same compound, the MIC50 (G +ve bacteria) was 2 µg/mL (≈ 5.93 µM), the MIC90 (G +ve bacteria) was 4 µg/mL (≈ 11.9 µM) and the G.M. [7] was 8 µg/mL. The MIC [8] was 0.5 µg/mL (≈ 1.48 µM), the MIC (Eubacterium leutum) was 1 µg/mL (≈ 2.96 µM) and the MIC ([9]; Prevotella melaninogenica, read-out: MIC Prevotella melaninogenica) was 1 µg/mL (≈ 2.96 µM). The “MIC Prevotella melaninogenica” value [9] was 2 µg/mL (≈ 5.93 µM), the MIC (Prevotella bivia) was 1 µg/mL (≈ 2.96 µM) and the “ED50 (mg/kg body weight) PO” value (MRSA 562 [10]) was 4.56 mg/kg body weight. The MIC (Ent. faecalis ATCC 29212) was 2 µg/mL (≈ 5.93 µM), the MIC [11] was 4 µg/mL (≈ 11.9 µM) and the MIC ([12]; Peptostreptococcus, read-out: MIC Peptostreptococcus magnum) was 2 µg/mL (≈ 5.93 µM). For the same compound, the “MIC Peptostreptococcus magnum” value [12] was 1 µg/mL (≈ 2.96 µM), the MIC [13] was 0.5 µg/mL (≈ 1.48 µM) and the MIC (Strep. pne. ATCC 6303) was 2 µg/mL (≈ 5.93 µM). It also gave an MIC (Clostridium difficile) of 2 µg/mL (≈ 5.93 µM), an MIC (Fusobacterium varium) of 1 µg/mL (≈ 2.96 µM) and an MIC [14] of 1 µg/mL (≈ 2.96 µM). The “Broth MIC +50% Sheep serum” value ([15]; +50% sheep serum) was 2 µg/mL, the “Broth MIC Normal MH broth” value ([15]; normal MH broth) was 1 µg/mL and the MIC (Fusobacterium necrogenes) was 0.5 µg/mL (≈ 1.48 µM). The MIC (Clostridium perfringens) was 2 µg/mL (≈ 5.93 µM), the Cmax [16] was 12000 to 16000 ng/mL and the MIC (Fusobacterium nucleatum; Fusobacterium nucleatum, read-out: MIC Fusobacterium nucleatum) was 0.5 µg/mL (≈ 1.48 µM). For the same compound, the “MIC Fusobacterium nucleatum” value (Fusobacterium nucleatum) was 1 µg/mL (≈ 2.96 µM).
